Test system: dehydrogenase enzyme activity in cellular fractions
Test: Enzyme assays with cellular fractions employing nicotinamide cofactors
Assay type: biochemical, K. robustum ADM X6L and Ketogulonigenium sp. ADM 291-19
Conditions: different substrates, either strain

SMILES: NC(=O)c1ccc[n+]([C@@H]2O[C@H](COP(=O)([O-])OP(=O)(O)OC[C@H]3O[C@@H](n4cnc5c(N)ncnc54)[C@H](OP(=O)(O)O)[C@@H]3O)[C@@H](O)[C@H]2O)c1 [NADP]
- nicotinamide cofactor dependence (in words): did not show any sign of nicotinamide cofactor dependence
